US9102678B2, “Compounds and methods for inhibiting mitotic progression” (Millennium Pharmaceuticals, Inc., priority 2004, dated 2015)

The compounds below were run against T1, recombinant murine Aurora A enzyme (Mus musculus, UniProt P97477) (assay: Aurora A DELFIA Kinase Assay). Details: mouse Aurora A, 250 μM ATP; threshold less than or equal to 100 nM; read-out: IC50.
T1 construct: hexahistidine (His6) (N); made in house; host or cells: insect cells, baculovirus (Bac-to-Bac, Invitrogen)
Type: biochemical

T1 sequence (P97477 whole entry): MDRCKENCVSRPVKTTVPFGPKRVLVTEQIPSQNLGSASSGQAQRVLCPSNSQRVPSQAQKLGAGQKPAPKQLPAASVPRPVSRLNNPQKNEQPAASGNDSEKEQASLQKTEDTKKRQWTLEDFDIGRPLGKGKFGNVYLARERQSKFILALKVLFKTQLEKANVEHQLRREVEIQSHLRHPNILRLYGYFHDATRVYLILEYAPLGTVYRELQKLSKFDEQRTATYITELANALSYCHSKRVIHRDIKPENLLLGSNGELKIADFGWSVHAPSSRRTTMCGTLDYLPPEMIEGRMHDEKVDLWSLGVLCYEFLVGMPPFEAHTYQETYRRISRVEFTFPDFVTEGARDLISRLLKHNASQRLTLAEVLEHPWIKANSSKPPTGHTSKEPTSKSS

SMILES | IC50 [nM]
NC1CCN(C(=O)c2ccc(Nc3ncc4c(n3)-c3ccc(Cl)cc3C(c3ccccc3C(F)(F)F)=NC4)cc2)CC1 [Compound I-287, N-{4[(4-aminopiperidin-1-yl)carbonyl]phenyl}-9-chloro-7-[2-(trifluoromethyl)phenyl]-5H-pyrimido[5,4-d][2]benzazepin-2-amine] | ≤ 100
CNC1CCN(C(=O)c2ccc(Nc3ncc4c(n3)-c3ccc(Cl)cc3C(c3ccccc3C(F)(F)F)=NC4)cc2)CC1 [Compound I-288, 9-chloro-N-(4-{[4-(methylamino)piperidin-1-yl]carbonyl}phenyl)-7-[2-(trifluoromethyl)phenyl]-5H-pyrimido[5,4-d][2]benzazepin-2-amine] | ≤ 100
NC1CCN(C(=O)c2ccc(Nc3ncc4c(n3)-c3ccc(Cl)cc3C(c3ccccc3C(F)(F)F)=NC4)cc2)C1 (stereo not drawn) [Compound I-289, N-{4-[(3-aminopyrrolidin-1-yl)carbonyl]phenyl}-9-chloro-7-[2-(trifluoromethyl)phenyl]-5H-pyrimido[5,4-d][2]benzazepin-2-amine] | ≤ 100
CNC1CCN(C(=O)c2ccc(Nc3ncc4c(n3)-c3ccc(Cl)cc3C(c3ccccc3C(F)(F)F)=NC4)cc2)C1 (stereo not drawn) [Compound I-290, 9-chloro-N-(4-{[3-(methylamino)pyrrolidin-1-yl]carbonyl}phenyl)-7-[2-(trifluoromethyl)phenyl]-5H-pyrimido[5,4-d][2]benzazepin-2-amine] | ≤ 100
NC1CCN(C(=O)c2cc(Nc3ncc4c(n3)-c3ccc(Cl)cc3C(c3c(F)cccc3F)=NC4)ccc2Cl)CC1 [Compound I-292, N-{3-[(4-aminopiperidin-1-yl)carbonyl]-4-chlorophenyl}-9-chloro-7-(2,6-difluorophenyl)-5H-pyrimido[5,4-d][2]benzazepin-2-amine] | ≤ 100
CN(C)C1CCCN(C(=O)c2ccc(Nc3ncc4c(n3)-c3ccc(Cl)cc3C(c3c(F)cccc3F)=NC4)cc2)C1 (stereo not drawn) [Compound I-293, 9-chloro-7-(2,6-difluorophenyl)-N-(4-{[3-(dimethylamino)piperidin-1-yl]carbonyl}phenyl)-5H-pyrimido[5,4-d][2]benzazepin-2-amine] | ≤ 100
NC1(C(=O)O)CCN(C(=O)c2ccc(Nc3ncc4c(n3)-c3ccc(Cl)cc3C(c3c(F)cccc3F)=NC4)cc2)CC1 [Compound I-295, 4-amino-1-(4-{[9-chloro-7-(2,6-difluorophenyl)-5H-pyrimido[5,4-d][2]benzazepin-2-yl]amino}benzoyl)piperidine-4-carboxylic acid] | ≤ 100
NC1CN(C(=O)c2ccc(Nc3ncc4c(n3)-c3ccc(Cl)cc3C(c3ccccc3C(F)(F)F)=NC4)cc2)C1 [Compound I-296, N-{4-[(3-aminoazetidin-1-yl)carbonyl]phenyl}-9-chloro-7-[2-(trifluoromethyl)phenyl]-5H-pyrimido[5,4-d][2]benzazepin-2-amine] | ≤ 100
CNC1CN(C(=O)c2ccc(Nc3ncc4c(n3)-c3ccc(Cl)cc3C(c3ccccc3C(F)(F)F)=NC4)cc2)C1 [Compound I-297, 9-chloro-N-(4-{[3-(methylamino)azetidin-1-yl]carbonyl}phenyl)-7-[2-(trifluoromethyl)phenyl]-5H-pyrimido[5,4-d][2]benzazepin-2-amine] | ≤ 100
CCOC(=O)C(N)CCNC(=O)c1ccc(Nc2ncc3c(n2)-c2ccc(Cl)cc2C(c2c(F)cccc2F)=NC3)cc1 (stereo not drawn) [Compound I-300, ethyl 2-amino-4-[(4-{[9-chloro-7-(2,6-difluorophenyl)-5H-pyrimido[5,4-d][2]benzazepin-2-yl]amino}benzoyl)amino]butanoate] | ≤ 100
O=C(O)c1ccc(Nc2ncc3c(n2)-c2ccc(Cl)cc2C(c2ncccc2F)=NC3)cc1 [Compound I-301, 4-{[9-chloro-7-(3-fluoropyridin-2-yl)-5H-pyrimido[5,4-d][2]benzazepin-2-yl]amino}benzoic acid] | ≤ 100
NC1CCN(C(=O)c2ccc(Nc3ncc4c(n3)-c3ccc(Cl)cc3C(c3ncccc3F)=NC4)cc2)CC1 [Compound I-304, N-{4[(4-aminopiperidin-1-yl)carbonyl]phenyl}-9-chloro-7-(3-fluoropyridin-2-yl)-5H-pyrimido[5,4-d][2]benzazepin-2-amine] | ≤ 100
NC1CCN(C(=O)c2ccc(Nc3ncc4c(n3)-c3ccc(Cl)cc3C(c3ncccc3F)=NC4)cc2)C1 (stereo not drawn) [Compound I-305] | ≤ 100
CN(C)CC(=O)Nc1ccc(Nc2ncc3c(n2)-c2ccc(Cl)cc2C(c2c(F)cccc2F)=NC3)cc1 [Compound I-307, N-(4-{[9-chloro-7-(2,6-difluorophenyl)-5H-pyrimido[5,4-d][2]benzazepin-2-yl]amino}phenyl)-2-(dimethylamino)acetamide] | ≤ 100
CCOC(=O)[C@@H](CCN)NC(=O)c1ccc(Nc2ncc3c(n2)-c2ccc(Cl)cc2C(c2c(F)cccc2F)=NC3)cc1 [Compound I-309, ethyl (2R)-4-amino-2-[(4-{[9-chloro-7-(2,6-difluorophenyl)-5H-pyrimido[5,4-d][2]benzazepin-2-yl]amino}benzoyl)amino]butanoate] | ≤ 100
CNC(=O)C1CN(C(=O)c2ccc(Nc3ncc4c(n3)-c3ccc(Cl)cc3C(c3c(F)cccc3F)=NC4)cc2)CCN1 (stereo not drawn) [Compound I-310, 4-(4-{[9-chloro-7-(2,6-difluorophenyl)-5H-pyrimido[5,4-d][2]benzazepin-2-yl]amino}benzoyl)-N-methylpiperazine-2-carboxamide] | ≤ 100
CNC1CCN(C(=O)c2ccc(Nc3ncc4c(n3)-c3ccc(Cl)cc3C(c3ccccn3)=NC4)cc2)C1 (stereo not drawn) [Compound I-315, 9-chloro-N-(4-{[3-(methylamino)pyrrolidin-1-yl]carbonyl}phenyl)-7-pyridin-2-yl-5H-pyrimido[5,4-d][2]benzazepin-2-amine] | ≤ 100
NC(=O)C1CN(C(=O)c2ccc(Nc3ncc4c(n3)-c3ccc(Cl)cc3C(c3c(F)cccc3F)=NC4)cc2)CCN1 (stereo not drawn) [Compound I-317, 4-(4-{[9-chloro-7-(2,6-difluorophenyl)-5H-pyrimido[5,4-d][2]benzazepin-2-yl]amino}benzoyl)piperazine-2-carboxamide] | ≤ 100
O=C(Nc1ccc(Nc2ncc3c(n2)-c2ccc(Cl)cc2C(c2c(F)cccc2F)=NC3)cc1)C1CCNCC1 [Compound I-319, N-(4-{[9-chloro-7-(2,6-difluorophenyl)-5H-pyrimido[5,4-d][2]benzazepin-2-yl]amino}phenyl)piperidine-4-carboxamide] | ≤ 100

More lines, now with the values ahead:

IC50 [nM] | SMILES
≤ 100 | CNC1CN(C(=O)c2cc(Nc3ncc4c(n3)-c3ccc(Cl)cc3C(c3c(F)cccc3F)=NC4)ccc2Cl)C1 [Compound I-291, 9-chloro-N-(4-chloro-3-{[3-(methylamino)azetidin-1-yl]carbonyl}phenyl)-7-(2,6-difluorophenyl)-5H-pyrimido[5,4-d][2]benzazepin-2-amine]
≤ 100 | COC(=O)C1(N)CCN(C(=O)c2ccc(Nc3ncc4c(n3)-c3ccc(Cl)cc3C(c3c(F)cccc3F)=NC4)cc2)CC1 [Compound I-294, methyl 4-amino-1-(4-{[9-chloro-7-(2,6-difluorophenyl)-5H-pyrimido[5,4-d][2]benzazepin-2-yl]amino}benzoyl)piperidine-4-carboxylate]
≤ 100 | NC1CCN(C(=O)c2ccc(Nc3ncc4c(n3)-c3ccc(Cl)cc3C(c3ccccn3)=NC4)cc2)CC1 [Compound I-298, N-{4-[(4-aminopiperidin-1-yl)carbonyl]phenyl}-9-chloro-7-pyridin-2-yl-5H-pyrimido[5,4-d][2]benzazepin-2-amine]
≤ 100 | NC1CCN(C(=O)c2ccc(Nc3ncc4c(n3)-c3ccc(Cl)cc3C(c3ccccn3)=NC4)cc2)C1 (stereo not drawn) [Compound I-299, N-{4-[(3-aminopyrrolidin-1-yl)carbonyl]phenyl}-9-chloro-7-pyridin-2-yl-5H-pyrimido[5,4-d][2]benzazepin-2-amine]
≤ 100 | O=C(O)C1CN=C(c2ccc(Nc3ncc4c(n3)-c3ccc(Cl)cc3C(c3c(F)cccc3F)=NC4)cc2)N1 (stereo not drawn) [Compound I-306, 2-(4-{[9-chloro-7-(2,6-difluorophenyl)-5H-pyrimido[5,4-d][2]benzazepin-2-yl]amino}phenyl)-4,5-dihydro-1H-imidazole-5-carboxylic acid]
≤ 100 | CC(C)(N)C(=O)Nc1ccc(Nc2ncc3c(n2)-c2ccc(Cl)cc2C(c2c(F)cccc2F)=NC3)cc1 [Compound I-308, 2-amino-N-(4-{[9-chloro-7-(2,6-difluorophenyl)-5H-pyrimido[5,4-d][2]benzazepin-2-yl]amino}phenyl)-2-methylpropanamide]
≤ 100 | CN(C)C1CCN(C(=O)c2ccc(Nc3ncc4c(n3)-c3ccc(Cl)cc3C(c3c(F)cccc3F)=NC4)cc2Cl)CC1 [Compound I-313, 9-chloro-N-(3-chloro-4-{[4-(dimethylamino)piperidin-1-yl]carbonyl}phenyl)-7-(2,6-difluorophenyl)-5H-pyrimido[5,4-d][2]benzazepin-2-amine]
≤ 100 | CCOC(=O)C1CN=C(c2ccc(Nc3ncc4c(n3)-c3ccc(Cl)cc3C(c3c(F)cccc3F)=NC4)cc2)N1 (stereo not drawn) [Compound I-314, ethyl 2-(4-{[9-chloro-7-(2,6-difluorophenyl)-5H-pyrimido[5,4-d][2]benzazepin-2-yl]amino}phenyl)-4,5-dihydro-1H-imidazole-5-carboxylate]
≤ 100 | CNC1CCN(C(=O)c2ccc(Nc3ncc4c(n3)-c3ccc(Cl)cc3C(c3ccccn3)=NC4)cc2)CC1 [Compound I-316, 9-chloro-N-(4-{[4-(methylamino)piperidin-1-yl]carbonyl}phenyl)-7-pyridin-2-yl-5H-pyrimido[5,4-d][2]benzazepin-2-amine]
≤ 100 | NC1CCN(C(=O)c2ccc(Nc3ncc4c(n3)-c3ccc(Cl)cc3C(c3c(F)cccc3F)=NC4)cc2Cl)C1 (stereo not drawn) [Compound I-318]
≤ 100 | CC1CN(C(=O)c2ccc(Nc3ncc4c(n3)-c3ccc(Cl)cc3C(c3ccc(F)cc3F)=NC4)cc2)CC(C)N1 (stereo not drawn) [Compound I-321, 9-chloro-7-(2,4-difluorophenyl)-N-{4-[(3,5-dimethylpiperazin-1-yl)carbonyl]phenyl}-5H-pyrimido[5,4-d][2]benzazepin-2-amine]
